Columns and labels:
[1] = system: Brown Norway rats; assay: Electroretinography (a-wave) after verteporfin PDT in rats treated i.p. with agent; type: in vivo, rat; conditions: for A Wave Amplitude PDT Eye: ERG 3-4 hours after PDT; for A Wave Amplitude PDT Eye / A Wave Amplitude Control Eye: N 4; for A Wave Amplitude % Control: PDT eye vs control eye, * p ≦ 0.05 vs vehicle; for A Wave Amplitude Control Eye: eye not treated with PDT; for loss in retinal function induced by PDT: rats, i.p. 1 hour before PDT, a-wave amplitudes
Procedure: Brown Norway rats weighing 200-400 grams were treated intraperitoneally (i.p.) with either brimonidine, AGN 199960, or the saline vehicle. One hour later, the rats were unilaterally treated with PDT and evaluated by electroretinography 3-4 hours later. There were 4 rats in each treatment group.
PDT was conducted as follows: Mydriasis was induced in one eye of each rat with a drop of 0.5% tropicamide. Rats were then anesthetized with isoflurane and placed on a platform in front of a slit lamp coupled to a Coherent diode laser for verteporfin PDT (689 nm). Verteporfin was injected intravenously at a dose of 6 mg/m^2. […] Three to four hours later, the treated animals were again dilated and anesthetized, then electroretinograms (ERGs) were evaluated in each eye.
ERGs are collected non-invasively by measuring mass-cell response arising due to retinal activity proceeding from a light stimulus. The first cells stimulated by a flash light stimulation are the photoreceptors at the outer retinal layer. This response is measured as an a-wave. As the signal is transduced to inner retinal neurons, a b-wave is produced. The a-wave reflects activity in the photoreceptors and the b-wave reflects activity in both photoreceptors and bipolar cells.
Before being subjected to the ERG test, the rats were placed in the dark (dark-adapted) for 15 minutes. Two types of ERG apparatus were used to generate the results below. In the initial brimonidine experiment, each eye was evaluated separately. A Grass photostimulator was placed 10 cm from the recording eye and flashed a single white flash lasting 10 microseconds. A gold corneal ring electrode with a reference electrode attached to the lower eyelid detected retinal responses. For the AGN 199960 experiments, a Ganzfeld dome was used to generate a single flash and sensitive bipolar corneal electrodes were placed on both eyes, thus allowing simultaneous ERGs to be done. A cushioning agent on the cornea (methylcellulose) was used in each case, and the responses were amplified and stored in a computer. The results reported are a-wave amplitudes, which appear to be the ERG parameter most affected in clinical PDT. […] has the following structure: [drawing 3]

[2] = system: wet age-related macular degeneration patient
Procedure: A patient presents with “wet” age-related macular degeneration (ARMD) in the foveal region of the right eye, and their condition is found to be suitable for photodynamic therapy (PDT). For one week prior to the date of scheduled treatment, the patient is given a topical dosage of brimonidine twice a day in a standard formulation.
The day of scheduled PDT treatment, the patient is administered 6 mg/M^2 of verteporfin. Fifteen minutes after the start of the infusion, the patient is administered Irradiance of 600 mW/cm^2 and total fluence of 50 Joules/cm^2 from an Argon light laser.
Brimonidine administration is continued every two days throughout the 12 week evaluation period.
Evaluation of neural health is assayed 1 week, 4 weeks, and 12 weeks following treatment by visual inspection of the retina and test of visual acuity.

[3] = system: CNV; conditions: FIG. 1B
[4] = system: retina; conditions: cited from earlier work

Compound	A Wave Amplitude PDT Eye ([1]; 300 ug/kg i.p. 1 hour prior to PDT, Ganzfeld dome) [uV]	A Wave Amplitude % Control ([1]; 300 ug/kg i.p. 1 hour prior to PDT)	A Wave Amplitude Control Eye ([1]; 300 ug/kg i.p., Ganzfeld dome) [uV]	loss in retinal function induced by PDT [1]	A Wave Amplitude PDT Eye ([1]; 1000 ug/kg i.p. 1 hour prior to PDT, Grass photostimulator) [uV]	A Wave Amplitude % Control ([1]; 1000 ug/kg i.p. 1 hour prior to PDT)	A Wave Amplitude Control Eye ([1]; 1000 ug/kg i.p., Grass photostimulator) [uV]	post PDT decrease in retinal functionality ([1]; FIG. 1A, compared to a saline control)	visual acuity ([2]; 4 and 12 weeks following treatment)	renewed neovascularization ([2]; 12 weeks following PDT treatment)	optic nerve axon loss ([2]; monitoring period up to 12 weeks)	Fluorescein angiography leakage in the treated tissue ([2]; one week after PDT and throughout the monitoring period)	visual inspection of the retina (whitening, edema) ([2]; topical twice a day one week before PDT, then every two days, 1 to 12 weeks after PDT)	area of ablation of CNV following PDT [3]	effect of PDT on vascular outgrowth and associated edema ([4]; about 6 mg/m^2, treatment necessary every few months)	retinal and optic nerve damage from PDT ([4]; high doses (12 and 18 mg/m^2))
O=C1c2ccccc2CCC1Cc1c[nH]c(=S)[nH]1 (centres unmarked) [AGN 960]	212 ± 16	101 ± 13* %	218 ± 29	inhibited												
Brc1c(NC2=NCCN2)ccc2nccnc12 [Brimonidine]				inhibited	90 ± 15	103 ± 8* %	91 ± 21	inhibits	no discernable loss of vision	No evidence	no evidence	minimal leakage	healthy with no whitening	does not affect		
verteporfin [vertporfin]															effective to slow vascular outgrowth and associated edema somewhat	long term or permanent scarring of the retina, chronic absence of photoreceptor cells, and optic nerve atrophy

— patent US20020094998A1, “Methods and compositions for treatment of ocular neovascularization and neural injury” (priority 2000, published 2002)
